Source: paper PMC4657899, “Design, Synthesis and In Vitro Activity of Anticancer Styrylquinolines. The p53 Independent Mechanism of Action” (PLoS ONE, 2015)

Tests used:
HCT116 (p53-/-) = assay: MTS anti-proliferative assay, HCT116 (p53-/-); format: cell-based, human; details: for IC50: MTS, 72 h incubation, mean ± SD; for times more effective against HCT116 (p53-/-) than against wild type cells: ratio of MTS IC50 values
Protocol: (§1) The human colon adenocarcinoma cell line HCT116 along with wild type p53 (p53^+/+) were obtained from the ATCC. The normal human fibroblast cell line GM 07492 and HCT116 with a p53 deletion (p53^-/-) were kindly provided by prof. M. Rusin from Maria Sklodowska-Curie Memorial Cancer Center and Institute of Oncology in Gliwice, Poland. Cells were grown as monolayer cultures in 75 cm^2 flasks (Nunc) in Dulbecco’s modified Eagle’s medium with an antibiotic gentamicin (200 μL/100 mL medium). DMEM for HCT116 were supplemented with 12% heat-inactivated fetal bovine serum (Gibco) and for GM 07492 with 15% fetal bovine serum (Gibco). Cells were cultured under standard conditions at 37°C in a humidified atmosphere at 5% CO2.
(§2) The cells were seeded in 96-well plates 24 h before the addition of the compounds that were tested. The assay was performed following a 72 h incubation with varying concentrations of the agents that were tested. The results were calculated as IC50 values (using GraphPad Prism 5). Each individual compound was tested in triplicate in a single experiment with each experiment being repeated three times. After a 72 h incubation with the compounds that were tested, 20 μL of The CellTiter 96®AQueous One Solution—MTS (Promega) solution was added to each well (with 100 μL DMEM without phenol red) and incubated for 1 h at 37°C. The optical densities of the samples were analyzed at 490 nm. Results were expressed as a percentage of the control.

HCT116 (p53+/+) = assay: MTS anti-proliferative assay, HCT116 (p53+/+); format: cell-based, human; details: mean ± SD
Protocol: as §1, §2

GM 07492 = assay: MTS cytotoxicity assay, normal fibroblasts GM 07492; format: cell-based; details: 72 h incubation, normal human fibroblasts, mean ± SD
Protocol: as §1, §2

P388 cell line = test system: P388 cell line; set-up: method as in PMID 17904844; details: cited from earlier work
PARP in HCT-116 cells = assay: Immunoblotting, PARP cleavage; format: cell-based, human; details: 0, 10, 20, 40 μM
Protocol: Specific antibodies were purchased from Sigma-Aldrich (anti-PARP, anti-tubulin and peroxidase-labeled secondary antibodies). Briefly, cellular lysates were prepared by harvesting cells in a Laemmli sample buffer. Proteins were separated on SDS-polyacrylamide gels and electroblotted onto nitrocellulose membranes. After blocking, the membranes were incubated with specific primary antibodies overnight, washed and then incubated with peroxidase-conjugated secondary antibodies. Finally, peroxidase activity was detected with ECL+ reagents (AP Biotech) using a CCD camera LAS-4000 (Fujifilm).

colon cancer cells = test system: colon cancer cells; set-up: method as in Arafa et al.; details: ref Arafa et al.; cited from earlier work
SK-N-MC cell line = test system: SK-N-MC cell line; set-up: method as in PMID 17142046; details: cited from earlier work
HCT116 +/+ = assay: Trypan blue staining test, HCT116 +/+; format: cell-based, human; details: S2 Table, trypan blue cell counting, 72 h
Protocol: (§3) The cells were seeded in 3 cm Petri dishes (Nunc) and incubated at 37°C. After 24h, solutions […]
(§4) a 72 h incubation with tested compounds, the cells were trypsinize d with 0.05% Trypsin -EDTA solution (Sigma). Then, 90µl of suspension cells transferred into 96 -well plate containing 10µl Trypan blue reagent in wells. The cells were counted under an optical inverted microscope Olympus CKX31. The results from three independent experiment were calculated as IC 50 values using GraphPad Prism 5 software.

Calf-thymus DNA (CT-DNA) = assay: Spectrophotometric DNA binding (intercalation) study with CT-DNA; details: for % hypochromism / Δε / shift of the wavelength of maximum absorption, alone vs DNA-bound: 18 μM CT-DNA; for % hypochromism: 1.5 h 37°C, Tris-HCl pH 7.9; for % hypochromism / Δε: at the (first) absorption band (CP-31398: 312); for shift of the wavelength of maximum absorption, alone vs DNA-bound / Changes in absorbance: S3 Table; for Changes in absorbance: with CT-DNA
Protocol: For the DNA binding studies, Calf-thymus DNA (CT-DNA) was purchased from Sigma Aldrich. The lyophilized CT-DNA was dissolved in 10 mM Tris-HCl, pH 7.9, mixed gently and left overnight at 4°C. Then, the concentration of CT-DNA was determined from the absorbance at 260 nm using an extinction coefficient of 6600 M^-1cm^-1. […] Afterwards, 18 μM CT-DNA was added to the prepared solutions and were incubated for 1.5 h at 37°C with occasional vortexing. Absorption spectra were measured using a Hitachi U-2900 spectrophotometer in range of 200–600 nm. All absorption spectra were imported and compared in OriginPro 8.0.

HCT116 -/- = assay: Trypan blue staining test, HCT116 -/-; format: cell-based, human; details: S2 Table, trypan blue cell counting, 72 h
Protocol: as §3, §4

[1] = Homo sapiens, HCT-116, 72 h incubation

Compound: CCOc1ccc(C=Cc2ccc3ccccc3n2)cc1 [2a]
- IC50 (HCT116 (p53-/-); Homo sapiens, HCT-116): > 25 µM
- IC50 (HCT116 (p53+/+); [1]): > 25 µM

Compound: Oc1c(Cl)cc(Cl)c2ccc(C=Cc3ccccc3Cl)nc12 [2c, 5,7-Dichloro-2 – [2-(2-chlorophenyl)vinyl]quinolin-8-ol]
- melting point: 205 to 210 °C

Compound: CC(=O)Oc1cccc2ccc(C=Cc3ccccc3F)nc12 [12b]
- IC50 (GM 07492; Fibroblast): > 25 µM
- IC50 (HCT116 (p53-/-); Homo sapiens, HCT-116): 5.78 ± 0.78 µM
- times more effective against HCT116 (p53-/-) than against wild type cells (HCT116 (p53-/-)): 2–3 times
- IC50 (HCT116 (p53+/+); [1]): 12.1 ± 3.02 µM
- melting point: 117 °C

Compound: Cc1ccc2c(n1)C(=O)C(NC(=O)/C=C/c1ccccc1)=CC2=O [IV]
- IC50 (P388 cell line): 1.44 µM

Compound: CC(=O)Oc1cccc(C=Cc2ccc3cccc(O)c3n2)c1 [4b]
- IC50 (GM 07492): > 25 µM
- IC50 (HCT116 (p53-/-)): 10.7 ± 3.76 µM
- IC50 (HCT116 (p53+/+); 72 h incubation): 7.88 ± 1.98 µM

Compound: Oc1cccc2ccc(C=Cc3ccccc3F)nc12 [11b]
- IC50 (GM 07492; Fibroblast): > 25 µM
- IC50 (HCT116 (p53-/-); Homo sapiens, HCT-116): 8.38 ± 1.12 µM
- times more effective against HCT116 (p53-/-) than against wild type cells (HCT116 (p53-/-)): 2–3 times
- IC50 (HCT116 (p53+/+); [1]): 15.4 ± 2.46 µM
- melting point: 239 °C

Compound: Oc1cc(O)c(C=Cc2ccc3cccc(O)c3n2)c(O)c1 [9b]
- IC50 (HCT116 (p53-/-)): > 25 µM
- IC50 (HCT116 (p53+/+); 72 h incubation): > 25 µM

Compound: CC(=O)Oc1ccccc1C=Cc1ccc2cccc(O)c2n1 [3b]
- IC50 (GM 07492): > 25 µM
- IC50 (HCT116 (p53-/-)): 13.5 ± 0.81 µM
- IC50 (HCT116 (p53+/+); 72 h incubation): 7.32 ± 1.01 µM

Compound: Oc1cccc2ccc(C=Cc3ccccc3Cl)nc12 [17b, 2 – [2-(2-Chlorophenyl)vinyl]quinolin-8-ol]
- IC50 (GM 07492; Fibroblast): 20.2 ± 6.52 µM
- IC50 (HCT116 (p53-/-); Homo sapiens, HCT-116): 7.97 ± 3.24 µM
- IC50 (HCT116 (p53+/+); [1]): 9.84 ± 1.79 µM
- PARP cleavage (PARP in HCT-116 cells): clearly observable

Compound: Oc1ccc(C=Cc2ccc3cccc(O)c3n2)c(O)c1 [20b, 2 – [2-(2,4-Dihydroxyphenyl)vinyl]quinolin-8-ol]
- IC50 (HCT116 (p53-/-); Homo sapiens, HCT-116): > 25 µM
- IC50 (HCT116 (p53+/+); [1]): > 25 µM
- melting point: 273 °C

Compound: COc1cc(/C=N/NC(=O)COc2c(Br)cc(Br)c3cccnc23)cnc1O [III]
- IC50 (colon cancer cells): 4.7 µM

Compound: CC(=O)Oc1cc(OC(C)=O)c(C=Cc2ccc3cccc(OC(C)=O)c3n2)c(OC(C)=O)c1 [10b]
- IC50 (HCT116 (p53-/-); Homo sapiens, HCT-116): > 25 µM
- IC50 (HCT116 (p53+/+); [1]): > 25 µM
- melting point: 189 °C

Compound: CCOc1ccccc1C=Cc1ccc2c(Cl)cc(Cl)c(O)c2n1 [1c, 5,7-Dichloro-2 – [2-(2-ethoxyphenyl)vinyl]quinolin-8-ol]
- IC50 (GM 07492; Fibroblast): > 25 µM
- IC50 (HCT116 (p53-/-); Homo sapiens, HCT-116): 3.25 ± 1.81 µM
- IC50 (HCT116 (p53+/+); [1]): 5.93 ± 0.97 µM
- melting point: 100 to 102 °C

Compound: Oc1ccccc1C=Cc1ccc2ccccc2n1 [1a]
- IC50 (GM 07492): > 25 µM
- IC50 (HCT116 (p53-/-)): 14.1 ± 2.24 µM
- IC50 (HCT116 (p53+/+); 72 h incubation): 17.4 ± 2.2 µM

Compound: Oc1cccc2ccc(/C=C/c3ccc(Cl)cc3)nc12 [I]
- IC50 (SK-N-MC cell line): 0.77 µM

Compound: COc1cc(C=Cc2ccc3cccc(O)c3n2)cc(OC(C)=O)c1OC(C)=O [7b]
- IC50 (HCT116 (p53-/-); Homo sapiens, HCT-116): > 25 µM
- IC50 (HCT116 (p53+/+); [1]): > 25 µM
- melting point: 172 °C

Compound: CC(=O)Oc1ccc(C=Cc2ccc3cccc(OC(C)=O)c3n2)c(OC(C)=O)c1OC(C)=O [14b]
- IC50 (HCT116 (p53-/-); Homo sapiens, HCT-116): 11.4 ± 1.02 µM
- IC50 (HCT116 (p53+/+); [1]): 17.9 ± 1.67 µM
- melting point: 194 °C

Compound: CCOc1ccc(C=Cc2ccc3cccc(O)c3n2)cc1 [16b, 2 – [2-(4-Ethoxyphenyl)vinyl]quinolin-8-ol]
- IC50 (HCT116 (p53-/-); Homo sapiens, HCT-116): 16.1 ± 4.84 µM
- IC50 (HCT116 (p53+/+); [1]): > 25 µM
- melting point: 130 °C

Compound: Oc1cccc(C=Cc2ccc3cccc(O)c3n2)c1 [19b, 2 – [2-(3-Hydroxyphenyl)vinyl]quinolin-8-ol]
- IC50 (HCT116 (p53-/-); Homo sapiens, HCT-116): 10.6 ± 1.23 µM
- IC50 (HCT116 (p53+/+); [1]): 16.3 µM

Compound: COc1cccc2c1C(=O)c1c(O)c3c(c(O)c1C2=O)C[C@@](O)(C(=O)CO)C[C@@H]3O[C@H]1C[C@H](N)[C@H](O)[C@H](C)O1 [Doxorubicin]
- IC50 (GM 07492; Fibroblast): 3.38 ± 1.29 µM
- IC50 (HCT116 (p53-/-); Homo sapiens, HCT-116): 1.65 ± 0.21 µM
- IC50 (HCT116 +/+; Homo sapiens, HCT-116): 2.83 µM
- IC50 (HCT116 (p53+/+); [1]): 5.95 ± 0.5 µM
- % hypochromism (Calf-thymus DNA (CT-DNA)): 34.2%
- % hypochromism (Calf-thymus DNA (CT-DNA); listed as DOX): 34,2%
- Δε (Calf-thymus DNA (CT-DNA)): 3235,6 M−1 cm−1
- shift of the wavelength of maximum absorption, alone vs DNA-bound (Calf-thymus DNA (CT-DNA)): 10
- Changes in absorbance (Calf-thymus DNA (CT-DNA)): hypochromism
- shift in the wavelength on DNA binding (Calf-thymus DNA (CT-DNA); blue shift for 5b, 6b, red shift for doxorubicin): 10 nm
- IC50 (HCT116 -/-; Homo sapiens, HCT-116): 1.28 µM

Compound: Oc1ccccc1C=Cc1ccc2cccc(O)c2n1 [18b, 2 – [2-(2-Hydroxyphenyl)vinyl]quinolin-8-ol]
- IC50 (HCT116 (p53-/-); Homo sapiens, HCT-116): 15.2 ± 1.31 µM
- IC50 (HCT116 (p53+/+); [1]): 16.1 ± 0.88 µM
- melting point: 316 °C

Compound: CC(=O)Oc1ccc(C=Cc2ccc3cccc(OC(C)=O)c3n2)c(OC(C)=O)c1 [8b]
- IC50 (HCT116 (p53-/-)): > 25 µM
- IC50 (HCT116 (p53+/+); 72 h incubation): > 25 µM

Compound: CCOc1ccc(C=Cc2ccc3c(Cl)cc(Cl)c(O)c3n2)cc1 [3c, 5,7-Dichloro-2 – [2-(4-ethoxyphenyl)vinyl]quinolin-8-ol]
- IC50 (GM 07492; Fibroblast): > 25 µM
- IC50 (HCT116 (p53-/-); Homo sapiens, HCT-116): 3.53 ± 0.83 µM
- IC50 (HCT116 (p53+/+); [1]): 2.23 µM
- % hypochromism (Calf-thymus DNA (CT-DNA)): 11,6%
- Δε (Calf-thymus DNA (CT-DNA)): 557,8 M−1 cm−1
- shift of the wavelength of maximum absorption, alone vs DNA-bound (Calf-thymus DNA (CT-DNA)): 8
- Changes in absorbance (Calf-thymus DNA (CT-DNA)): hypochromism
- melting point: 156 to 158 °C

Compound: COc1cccc(C=Cc2ccc3cccc(O)c3n2)c1 [13b]
- IC50 (GM 07492; Fibroblast): > 25 µM
- IC50 (HCT116 (p53-/-); Homo sapiens, HCT-116): 18.4 ± 1.36 µM
- IC50 (HCT116 (p53+/+); [1]): 24.6 ± 4.36 µM

Compound: CCCCOc1ccc(C=Cc2ccc3ccccc3n2)cc1 [3a]
- IC50 (HCT116 (p53-/-)): > 25 µM
- IC50 (HCT116 +/+): > 25 µM
- IC50 (HCT116 (p53+/+); 72 h incubation): > 25 µM
- IC50 (HCT116 -/-): > 25 µM

Compound: CC(=O)Oc1ccccc1C=Cc1ccc2cccc(OC(C)=O)c2n1 [2b]
- IC50 (GM 07492): 6.92 ± 1.72 µM
- IC50 (HCT116 (p53-/-)): 14.7 ± 1.74 µM
- IC50 (HCT116 (p53+/+); 72 h incubation): 8.08 ± 0.56 µM

Compound: CCOc1ccccc1C=Cc1ccc2cccc(O)c2n1 [15b, 2 – [2-(2-Ethoxyphenyl)vinyl]quinolin-8-ol]
- IC50 (HCT116 (p53-/-); Homo sapiens, HCT-116): 12.8 ± 3.53 µM
- IC50 (HCT116 (p53+/+); [1]): 15.8 ± 3.32 µM
- melting point: 100 °C
